Data set [1] has as its system lymphocytic leukemia P388. Description: Lymphocytic Leukemia P388 Test. Type of data set: in vivo, BDF1 female mice. Conditions: for T/Cx100 %: survival time treated/control. An excerpt: These have been reported in "Cancer Chemotherapy Reports", Part III, Vol. 3, No. 2 (1972), Geran, et. al. These protocols have established standardized screening tests which are generally followed in the field of testing for antitumor agents. Of these systems, lymphocytic leukemia P388, melanotic melanoma B16, L1210 leukemia and colon 26 adenocarcinoma are particularly significant to the present invention. These neoplasms are utilized for testing as transplantable tumors in mice.
The animals used were BDF1 female mice. There were 5 or 6 mice per test group. The tumor transplant was by intraperitoneal injection of 0.5 ml of dilute ascitic fluid containing 1 x 10^6 cells of lymphocytic leukemia P388 on day zero. The test compounds were administered intraperitoneally at a volume of 0.5 ml in sterile, pyrogen free saline on days 1, 5 and 9 (relative to tumor inoculation) at the indicated doses. The mice were weighed and survivors recorded on a regular basis for 30 days. The median survival time and the ratio of survival time for treated (T)/control (C) animals were calculated. Values of T/C greater than or equal to 125 are considered to reflect significant antitumor activity.

For data set [2], the system named is human colon cancer cell line LS174T. Description: In vivo antitumor test, human tumor xenograft LS174T. Details: species or system athymic (nude) mice. The following applies: no MoAb, iv, three injections started on day 8, day 21 post-implantation. (A xenograft is tissue or cells of one species grown in another, often human tumour cells in immunodeficient mice.)

Data set [3] has as its system human breast cancer cell line MX-1. Description: In vivo antitumor test, human tumor xenograft MX-1. Set-up: species or system athymic (nude) mice. Conditions: no MoAb, iv, three injections starting on day 2, day 42 post-implantation.
The test system of data set [4] is human Burkitt lymphoma cell line Raji TC. Nature of the data set: In vivo antitumor test, human tumor xenograft Raji. Details: species or system athymic (nude) mice. Conditions: no MoAb, iv, three injections starting on day 7, day 35 post-implantation.
Where [5] appears, read: dose 0.00125 mg/kg intraperitoneally on days 1, 5 and 9.
Where [6] appears, read: dose 0.0025 mg/kg intraperitoneally on days 1, 5 and 9.
Setting [7] is: dose 0.005 mg/kg intraperitoneally on days 1, 5 and 9.
Setting [8] is: dose 0.010 mg/kg intraperitoneally on days 1, 5 and 9.
The mark [9] stands for this setting: dose 0.020 mg/kg intraperitoneally on days 1, 5 and 9.
The mark [10] stands for this setting: dose 0.040 mg/kg intraperitoneally on days 1, 5 and 9.
[11] abbreviates: dose 0.080 mg/kg intraperitoneally on days 1, 5 and 9.
Where [12] appears, read: dose 0.0003 mg/kg intraperitoneally on days 1, 5 and 9.
Where [13] appears, read: dose 0.0006 mg/kg intraperitoneally on days 1, 5 and 9.

As to “3-Mercaptopropionyl hydrazide disulfide of LL-E33288α2-I”, the “Median Survival” value turned out to be 18.5 days in data set [1] (setting [5]), 18.5 days in data set [1] (setting [6]), 21.0 days in data set [1] (setting [7]) and 26.5 days in data set [1] (setting [8]). Also, the T/Cx100 % in data set [1] (setting [5]) is reported as 161%; in data set [1] (setting [6]) it was 161%; in data set [1] (setting [7]) it was 183%; in data set [1] (setting [8]), 230%.

For “3-Mercaptopropionyl hydrazide disulfide of N-acetyl LL-E33288γ1^I”, the “Median Survival” value in data set [1] (setting [9]) was 15.0 days; in data set [1] (setting [10]), 18.0 days; in data set [1] (setting [11]), 21.0 days. Further, the T/Cx100 % in data set [1] (setting [9]) is 125%; in data set [1] (setting [10]), 150%; in data set [1] (setting [11]) it was 175%.

As to `CC[C@]1(O)C[C@H]2CN(CCc3c([nH]c4ccccc34)[C@@](C(=O)OC)(c3cc4c(cc3OC)N(C=O)[C@H]3[C@@](O)(C(=O)OC)[C@H](OC(C)=O)[C@]5(CC)C=CCN6CC[C@]43[C@@H]65)C2)C1` [Vincristine], in data set [2] (Drug 20 mcg), the S/T is 6/6 and the “Tumor Size (T/C)%control” value was 23 %control.

Regarding “3-Mercaptoisovaleryl hydrazide disulfide of LL-E33288q1-I”, the “Median Survival” value in data set [1] (setting [12]) was 14.0 days; in data set [1] (setting [13]), 13.0 days; in data set [1] (setting [5]), 16.0 days; in data set [1] (setting [6]), 17.0 days; in data set [1] (setting [7]), 18.0 days; in data set [1] (setting [8]), 26.5 days. Further, the T/Cx100 % in data set [1] (setting [12]) was found to be 133%; in data set [1] (setting [13]), 124%; in data set [1] (setting [5]), 152%; in data set [1] (setting [6]), 162%; in data set [1] (setting [7]), 171%; in data set [1] (setting [8]), 252%.

As for “3-Mercaptopropionic Acid Disulfide of LL-E33288γ1^I”, the T/Cx100 % in data set [1] (setting [6]) is listed as 125%; in data set [1] (setting [7]), 145%.

Consider “N-acetyl LL-E33288δ1^I [reference compound]”, for which the S/T was 2/6 in data set [3] (Drug 1.0 mcg), 6/6 in data set [4] (Drug 0.5 mcg) and 1/6 in data set [2] (Drug 2.0 mcg). Moreover, the “Tumor Size (T/C)%control” value came out at 46 %control in data set [3] (Drug 1.0 mcg), 226 %control in data set [4] (Drug 0.5 mcg) and 32 %control in data set [2] (Drug 2.0 mcg).

As to “3-Mercaptobutyryl hydrazide disulfide of LL-E33288γ1-I”, the “Median Survival” value amounted to 19.5 days in data set [1] (setting [13]), 21.0 days in data set [1] (setting [5]), 23.0 days in data set [1] (setting [6]) and 28.5 days in data set [1] (setting [7]). The T/Cx100 % amounted to 130% in data set [1] (setting [13]), 140% in data set [1] (setting [5]), 153% in data set [1] (setting [6]) and 190% in data set [1] (setting [7]).

As for “Hydrazide of 3-mercaptopropionic acid disulfide of N-acetyl LL-E33288δ1^I [Hydrazide alone]”, in data set [3] (Drug 2.0 mcg), the S/T is 3/6 and the “Tumor Size (T/C)%control” value amounted to 71 %control. In data set [4] (Drug 1.0 mcg), the S/T is on record as 6/6 and the “Tumor Size (T/C)%control” value was found to be 517 %control.

Values taken from patent EP0392384B1, “Targeted forms of methyltrithio antitumor agents” (AMERICAN CYANAMID COMPANY, priority 1989, dated 1990).
